According to BindingDB's records for doi:10.1007/s00210-004-0951-4 (Vernalis Research, 2004):
Several values for one entry are separate records, joined by “and”; a condition that tells them apart may be missing. Equal values may be shown once. Where a name gives a salt, the structure may show the parent alone.

Experiments:
[1] = target: 5-hydroxytryptamine receptor 2B (Homo sapiens, UniProt P41595)
[2] = target: T1, 5-hydroxytryptamine receptor 2C (Homo sapiens, UniProt P28335)
T1 sequence (P28335 whole entry): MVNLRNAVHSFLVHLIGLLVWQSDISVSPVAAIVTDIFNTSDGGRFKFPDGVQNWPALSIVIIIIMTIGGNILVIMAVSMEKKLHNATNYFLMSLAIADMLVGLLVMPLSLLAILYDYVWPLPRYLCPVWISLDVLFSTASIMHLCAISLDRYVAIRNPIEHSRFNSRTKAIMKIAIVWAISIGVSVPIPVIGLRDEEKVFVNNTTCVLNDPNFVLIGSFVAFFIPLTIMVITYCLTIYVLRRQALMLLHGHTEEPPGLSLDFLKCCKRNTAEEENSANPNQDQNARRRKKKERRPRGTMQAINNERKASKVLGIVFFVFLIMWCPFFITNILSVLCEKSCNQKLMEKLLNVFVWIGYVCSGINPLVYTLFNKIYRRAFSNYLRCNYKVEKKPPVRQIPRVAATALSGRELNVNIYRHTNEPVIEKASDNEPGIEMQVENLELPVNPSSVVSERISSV

5-hydroxytryptamine receptor 2B, sequence (P41595 whole entry): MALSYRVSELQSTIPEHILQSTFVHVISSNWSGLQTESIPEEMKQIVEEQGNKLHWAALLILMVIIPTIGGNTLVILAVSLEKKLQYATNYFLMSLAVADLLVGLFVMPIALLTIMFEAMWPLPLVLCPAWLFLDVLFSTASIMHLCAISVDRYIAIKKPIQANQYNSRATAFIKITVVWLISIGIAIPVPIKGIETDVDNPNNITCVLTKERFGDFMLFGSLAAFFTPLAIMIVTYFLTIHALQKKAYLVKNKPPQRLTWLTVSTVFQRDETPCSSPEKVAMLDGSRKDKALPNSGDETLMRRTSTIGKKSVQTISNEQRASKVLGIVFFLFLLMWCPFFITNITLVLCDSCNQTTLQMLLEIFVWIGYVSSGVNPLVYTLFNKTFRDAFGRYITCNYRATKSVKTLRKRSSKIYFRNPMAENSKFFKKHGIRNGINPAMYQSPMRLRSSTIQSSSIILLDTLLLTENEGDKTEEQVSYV

SMILES: FC(F)(F)c1ccc(N2CCNCC2)nc1Cl [2-Chloro-3-(trifluoromethyl)-6-(1-piperazinyl)pyridine]
- Ki [1]: 91.2 nM
- Ki [2]: 14.8 nM

SMILES: COc1cc(CC(C)N)c(OC)cc1I (stereo not drawn) [[125I]2,5-dimethoxy-4-iodoamphetamine]
- Ki [1]: 28.2 nM and 53.7 nM
- Ki [2]: 8.32 nM and 5.37 nM

SMILES: Cc1cc2c(cc1Cl)N(C(=O)Nc1ccc(Oc3cccnc3C)nc1)CC2 [CAS_181632-25-7]
- Ki [1]: 145 nM
- Ki [2]: 7.08 nM

SMILES: NCCc1c[nH]c2ccccc12 [1H-indole-3-ethanamine]
- Ki [1]: 102 nM
- Ki [2]: 2340 nM

SMILES: Cn1ccc2cc3c(cc21)CCN3C(=O)Nc1cccnc1
- Ki [1]: 22.4 nM

SMILES: Cc1nc2sccn2c(=O)c1CCN1CCC(=C(c2ccc(F)cc2)c2ccc(F)cc2)CC1
- Ki [1]: 2.14 nM
- Ki [2]: 6.61 nM

SMILES: COc1cc(CC(C)N)c(OC)cc1Br (stereo not drawn) [2-(4-Bromo-2,5-dimethoxy-phenyl)-1-methyl-ethylamine((-)-DOB)]
- Ki [1]: 43.6 nM

SMILES: C[C@H](N)Cc1cccc(C(F)(F)F)c1 [Norfenfluramine (+)]
- Ki [1]: 100 nM
- Ki [2]: 51.3 nM

SMILES: CCCN1CCCC2Cc3[nH]ncc3CC21 (stereo not drawn) [NSC_55397]
- Ki [1]: 302 nM
- Ki [2]: 3310 nM

SMILES: O=C1NCN(c2ccccc2)C12CCN(CCCOc1ccc(F)cc1)CC2 [NSC_77445]
- Ki [2]: 1550 nM

SMILES: Cn1cc(CCN)c2cc(O)ccc21 [5-HT,omega-N-Me]
- Ki [1]: 6.92 nM
- Ki [2]: 2.69 nM

SMILES: CC(N)Cc1c[nH]c2ccc(OCc3cccs3)cc12 (stereo not drawn) [NSC_5311036]
- Ki [2]: 77.6 nM

SMILES: CN1CC(C(=O)NC2(C)OC3(O)C4CCCN4C(=O)C(Cc4ccccc4)N3C2=O)C=C2c3cccc4[nH]cc(c34)CC21 (stereo not drawn) [CAS_113-15-5]
- Ki [1]: 1.29 nM
- Ki [2]: 1.91 nM

SMILES: CN1CC[C@@H]2CN3CCc4cccc(c43)[C@@H]2C1 [SDZ SER 082 FUMARATE]
- Ki [1]: 204 nM
- Ki [2]: 7.59 nM

SMILES: Cc1cc(NC(=O)Nc2ccc3c(ccn3C)c2)sn1 [CAS_3277600]
- Ki [1]: 126 nM

SMILES: CCCN(CCC)C1CCc2cccc(O)c2C1 (stereo not drawn)
- Ki [1]: 4070 nM

SMILES: NCCc1c[nH]c2ccc(C(N)=O)cc12 [[3H]-5-carboxamidotryptamine]
- Ki [1]: 186 nM

SMILES: FC(F)(F)c1cccc(N2CCNCC2)c1 [TFMPP]
- Ki [1]: 58.9 nM

SMILES: c1ccc2nc(N3CCNCC3)ccc2c1 [2-Piperazin-1-yl-quinoline (Quipazine)]
- Ki [1]: 85.1 nM
- Ki [2]: 53.7 nM

SMILES: CSc1ccc2c(c1)C(N1CCN(C)CC1)Cc1ccccc1S2 (stereo not drawn) [methanesulfonic acid;1-methyl-4-(3-methylsulfanyl-5,6-dihydrobenzo[b][1]benzothiepin-5-yl)piperazine]
- Ki [2]: 4.47 nM

SMILES: CC[C@@H](CO)NC(=O)[C@@H]1C=C2c3cccc4c3c(cn4C)C[C@H]2N(C)C1
- Ki [2]: 4.47 nM

SMILES: O=C(CCCN1CCC2(CC1)C(=O)NCN2c1ccccc1)c1ccc(F)cc1 [8-[4-(4-fluorophenyl)-4-oxidanylidene-butyl]-1-phenyl-1,3,8-triazaspiro[4.5]decan-4-one]
- Ki [2]: 603 nM

SMILES: COc1cc(OC)c(C(=O)CCCCN2CCC3(CC2)NC(=O)NC3=O)cc1NS(=O)(=O)c1ccc(C(F)(F)F)cc1 [N-[5-[5-(2,4-Dioxo-1,3,8-triazaspiro[4.5]decan-8-yl)-1-oxopentyl]-2,4-dimethoxyphenyl]-4-(trifluoromethyl)benzenesulfonamide]
- Ki [1]: 2880 nM
- Ki [2]: 5.01 nM

SMILES: CC(C)CC(N(C)C)C1(c2ccc(Cl)cc2)CCC1 (stereo not drawn) [CAS_106650-56-0]
- Ki [2]: > 10000 nM

SMILES: Cc1nc(-c2ccc(-c3ccc(C(=O)N4CCc5cc6c(cc54)C4(CCN(C)CC4)CO6)cc3)c(C)c2)no1 [4-[2-methyl-4-(5-methyl-1,2,4-oxadiazol-3-yl)phenyl]phenyl-1'-methylspiro[3,5,6,7-tetrahydro-2H-furo[2,3-f]indole-3,4'-(hexahydropyridine)]-5-ylmethanone]
- Ki [1]: 1350 nM
- Ki [2]: 2000 nM

SMILES: OC(c1ccccc1)C1CCN(CCc2ccccc2)CC1 (stereo not drawn) [MDL-11939]
- Ki [1]: 3310 nM
- Ki [2]: 263 nM

SMILES: CC(C)CC(N)C1(c2ccc(Cl)cc2)CCC1 (stereo not drawn) [NSC_134771]
- Ki [1]: > 10000 nM
- Ki [2]: > 10000 nM

SMILES: COc1ccc2c(c1O[C@H]1CCNC1)CCC2 [ORG-37684]
- Ki [1]: 42.7 nM
- Ki [2]: 7.59 nM

SMILES: CCC(CO)NC(=O)C1C=C2c3cccc4[nH]cc(c34)CC2N(C)C1 (stereo not drawn) [NSC_8226]
- Ki [1]: 0.46 nM
- Ki [2]: 4.57 nM

SMILES: CC(N)Cn1ccc2cc(F)c(Cl)cc21 (stereo not drawn) [NSC_3045226]
- Ki [1]: 5.37 nM
- Ki [2]: 6.03 nM

SMILES: Clc1cncc(N2CCNCC2)n1 [L-630,571]
- Ki [1]: 617 nM
- Ki [2]: 97.7 nM

SMILES: CN1CC(NS(=O)(=O)N(C)C)CC2c3cccc4c3c(cn4C)CC21 (stereo not drawn) [CAS_64795-35-3]
- Ki [1]: 3.47 nM

SMILES: CN1CCN(c2nc3cc(C(F)(F)F)ccc3n3cccc23)CC1 [CAS_109028-10-6]
- Ki [1]: 871 nM

SMILES: C[C@H](N)CN1CCc2ccc(Br)cc21
- Ki [1]: 30.2 nM
- Ki [2]: 5.62 nM

SMILES: CC(C)c1cc(-c2ccc(F)c3ccccc23)nc(N)n1 [RS-127445]
- Ki [1]: 1.07 nM
- Ki [2]: 468 nM

SMILES: CSc1cc2c(cc1C(F)(F)F)N(C(=O)Nc1cccnc1)CC2
- Ki [1]: 2.45 nM
- Ki [2]: 2.19 nM
